Where a SMILES comes first, the peptide text is derived from it. [ ]: non-standard residue; d: D form. The star is where a group is joined. pY = N[C@@H](Cc1ccc(OP(=O)(O)O)cc1)C(=O)O; 2Abz = Nc1ccccc1C(=O)O; Cbz = O=C(OCc1ccccc1)*
Molecular target: Growth factor receptor-bound protein 2 (Homo sapiens, UniProt P62993)
Assay: Inhibition of Grb2-SH2 domain binding to phospho-EGF receptor intracellular C-terminal domain

| IC50 | SMILES |
| --- | --- |
| 7.9 µM | CC[C@H](C)[C@H](NC(=O)[C@H](Cc1ccc(OP(=O)(O)O)cc1)NC(=O)[C@@H](N)CCC(=O)O)C(=O)N[C@@H](CC(N)=O)C(N)=O (H-E[pY]IN-NH2) |
| 8.64 µM | CC[C@H](C)[C@H](NC(=O)[C@H](Cc1ccc(OP(=O)(O)O)cc1)NC(C)=O)C(=O)N[C@@H](CC(N)=O)C(N)=O (Ac-[pY]-Ile-Asn-NH2) |

Continued, molecule first:

| SMILES | IC50 |
| --- | --- |
| CC[C@H](C)[C@H](NC(=O)[C@@H](N)Cc1ccc(OP(=O)(O)O)cc1)C(=O)N[C@@H](CC(N)=O)C(N)=O (H-[pY]-Ile-Asn-NH2) | 56.9 µM |
| CC[C@H](C)[C@H](NC(=O)[C@H](Cc1ccc(OP(=O)(O)O)cc1)NC(=O)OCc1ccccc1)C(=O)N[C@@H](CC(N)=O)C(N)=O (Cbz-[pY]-Ile-Asn-NH2) | 6.35 µM |
| CC[C@H](C)[C@H](NC(=O)[C@H](Cc1ccc(OP(=O)(O)O)cc1)NC(=O)OCc1cccc(N)c1)C(=O)N[C@@H](CC(N)=O)C(N)=O | 0.065 µM |
| CC[C@H](C)[C@H](NC(=O)[C@H](Cc1ccc(OP(=O)(O)O)cc1)NC(=O)[C@H](CCC(=O)O)NC(=O)c1ccccc1N)C(=O)N[C@@H](CC(N)=O)C(N)=O (H-[2Abz]E[pY]IN-NH2) | 0.022 µM |
